Data set [1] relates to H1975 cells (EGFR L858R/T790M). The data set is described as follows: Inhibitory activity on cell proliferation, H1975. In kind it is cell-based. The following applies: Homo sapiens, NCI-H1975; H1975, 72 hours; read-out: Inhibitory activity on proliferation of cells (IC50, μM) H1975. As to the method: (§1) Cell proliferation activity was assessed by MTS assay. Cells were exposed to processing conditions for 72 hours and the number of cells used in each experiment for each cell line was adjusted based on absorbance values (absorbance values at 490 nm, 1.3-2.2). Six concentration gradients (0.1 nM-10 μM) were set for the compounds to be tested, wherein at least 6 sets of parallel controls for each concentration were used.
(§2) H1975, A431 cells were cultured in corresponding media, and cells were passaged at least twice after resuscitation and then used for experiments. Cells at Log phase were trypsinized and resuspended in culture medium. H1975 (1000 cells per well), A431 (2000 cells per well) were seeded in 96-well plates in a volume of 100 μL; and 6 sets of parallel controls and 7 columns were set. The plate was placed in a 37° C. 5% CO2 incubator overnight. Compounds were dissolved in DMSO to a concentration of […], and then the concentration was gradually diluted to 10 μM, 1 μM, 0.1 μM, 0.01 μM, 0.001 μM, 0.0001 μM per liter, respectively. 2 μL of the compound solution was added to 998 μL of medium, and the mixture was thoroughly mixed. 100 μL of the mixture was added to a 96-well plate. […] After culturing for 68 hours, 20 μL of MTT (5 mg/mL) was added. After 4 hours, the supernatant was discarded and 150 μL of DMSO was added. After shaking for 10 minutes, the plate was read with Synergy HT (Bio TeK) (OD490). Data were calculated using GraphPad Prism version 4.0 and IC50 values were obtained using a non-linear regression model of dose response curve.

Data set [2] in a line: Determination of solubility in water (PBS 20 mM, pH 6.8). The class given is physicochemical. Particulars: PBS buffer, aqueous buffer, thermodynamic from solid; pH 6.8, 20 mM PBS; read-out: Solubility (pH 6.8, g/mL). As to the method:
The suspension was filtered through a 0.22 μm PVDF filter, and then diluted to an appropriate concentration with methanol (v=50%) and PBS (v=50%), and the absorbance was measured by a UV spectrophotometer. About 3 mg of compound was accurately weighed, and methanol was added for preparing a stock solution of 1 mg/mL. The above stock solution was taken and prepared into a solution at concentrations of 0.05, 0.04, 0.03, 0.02 and 0.01 mg/mL, respectively, PBS solution (v=50%) was added and the absorbance value was measured. Concentration c (mg/mL) as horizontal ordinate vs absorbance A as longitudinal coordinate was plotted, and a line was fitted for obtaining a standard curve (correlation coefficient greater than 0.998). The solubility of a compound in water was calculated from the standard curve.

Data set [3] concerns A431 cells (EGFR wild type). The data set is described as follows: Inhibitory activity on cell proliferation, A431. The class given is cell-based. Particulars: Homo sapiens, A-431; A431, 72 hours; read-out: Inhibitory activity on proliferation of cells (IC50, μM) A431. The method, then:
as §1, §2

The target of another data set is T1, Wild type EGFR (Homo sapiens, UniProt P00533).
T1 construct: purchased Invitrogen PV3872
T1 sequence (P00533 25-1210): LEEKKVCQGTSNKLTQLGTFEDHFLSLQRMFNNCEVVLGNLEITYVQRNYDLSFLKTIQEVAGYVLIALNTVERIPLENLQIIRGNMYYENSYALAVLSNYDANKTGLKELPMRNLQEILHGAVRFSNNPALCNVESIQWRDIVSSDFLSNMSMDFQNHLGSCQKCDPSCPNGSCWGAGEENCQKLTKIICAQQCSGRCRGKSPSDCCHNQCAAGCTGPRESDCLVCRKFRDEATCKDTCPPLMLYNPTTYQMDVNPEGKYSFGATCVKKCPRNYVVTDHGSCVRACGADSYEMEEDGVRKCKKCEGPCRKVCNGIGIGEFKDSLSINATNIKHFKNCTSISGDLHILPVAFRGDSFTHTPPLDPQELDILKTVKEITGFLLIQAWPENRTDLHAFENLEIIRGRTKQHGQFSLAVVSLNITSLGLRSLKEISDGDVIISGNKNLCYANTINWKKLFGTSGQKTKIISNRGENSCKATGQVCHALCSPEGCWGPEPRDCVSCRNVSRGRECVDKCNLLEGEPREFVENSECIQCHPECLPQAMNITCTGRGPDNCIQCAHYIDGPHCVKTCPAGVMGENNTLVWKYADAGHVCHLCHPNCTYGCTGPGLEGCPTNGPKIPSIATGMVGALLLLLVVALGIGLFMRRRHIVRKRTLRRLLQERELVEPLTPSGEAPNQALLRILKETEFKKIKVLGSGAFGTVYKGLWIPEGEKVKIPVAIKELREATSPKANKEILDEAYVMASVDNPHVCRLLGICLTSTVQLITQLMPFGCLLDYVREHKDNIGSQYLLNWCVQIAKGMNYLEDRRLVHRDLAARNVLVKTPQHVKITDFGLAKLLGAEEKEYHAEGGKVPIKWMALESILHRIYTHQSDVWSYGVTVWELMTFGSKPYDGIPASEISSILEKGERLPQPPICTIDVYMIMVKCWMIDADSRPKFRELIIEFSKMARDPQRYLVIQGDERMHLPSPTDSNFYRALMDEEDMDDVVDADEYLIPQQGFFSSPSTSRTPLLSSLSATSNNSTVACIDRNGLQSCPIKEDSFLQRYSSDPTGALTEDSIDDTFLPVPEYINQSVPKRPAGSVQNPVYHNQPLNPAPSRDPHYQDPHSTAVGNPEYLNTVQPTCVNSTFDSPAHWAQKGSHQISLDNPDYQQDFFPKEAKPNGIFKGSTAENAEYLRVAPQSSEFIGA
Kind of data set: Kinase activity test (FRET), wild type EGFR. In kind it is biochemical. The following applies: wild type EGFR; read-out: Inhibitory activity of EGFR on kinase (IC50, nM) WT. As to the method:
(§3) EGFR-TK catalyses transfer of one phosphate group of adenosine triphosphate (ATP) to polypeptide substrate, poly(Glu, Tyr)4:1, which is labeled with two fluorescent groups coumarin and fluorescein.
(§4) 2.5 μL of Test Compounds, 5 μL Kinase/Peptide Substrate Mixture, 2.5 μL ATP Solution were added into a 384-well plate, and the 10 μL of reaction system was shaken for 30 s and incubated at room temperature for 1 h. 5 μL of Development Solution was added and the 15 μL of reaction system was shaken for 30 s, and incubated at room temperature for 1 h. […] The inhibitory rates of the compounds at 7 concentration gradients were determined and the IC50 value for each compound was calculated by Origin 8.0 fitting curve.
(§5) 10 concentration gradients from 5.1×10^−11 mol/L to 1.0×10^−6 mol/L were set for all compounds to be tested.
(§6) Compounds were diluted in DMSO for three times from 5.1×10^−9 M to 1×10^−4 M. 4 μL of the compound was dissolved in 96 μL of water to obtain a 4× compound solution. […] The 10 μL kinase reaction consisted of 2.5 μL compound solution, 5 μL kinase/peptide mix, 2.5 μL ATP solution. […] 5 μL of phosphorylated peptide solution, instead of the kinase/peptide mixture, was used as a 100% phosphorylation control. […] The plates were thoroughly mixed and incubated at room temperature for 1.5 hours. 5 μL of Development Solution was added into each well and then incubated for another 1 hour at room temperature, unphosphorylated peptides were cleaved during this period. Finally, 5 μL Stop Reagent was added to quench the reaction. The plates were measured with EnVision Multilabel Reader (Perkin Elmer). The experimental data were calculated using GraphPad Prism version 4.0. Each experiment was repeated more than 3 times.

A further data set addresses T2, EGFR-L858R/T790M (Homo sapiens, UniProt P00533, L858R/T790M).
T2 construct: purchased Invitrogen PV4879
Kind of data set: Kinase activity test (FRET), EGFR T790M/L858R. The class given is biochemical. Particulars: EGFR T790M/L858R; read-out: Inhibitory activity of EGFR on kinase (IC50, nM) T790M/L858R. The method, then: as §3, §4, §5, §6

In brackets after ≈: the same amount, converted by molar mass. Some results are limits rather than exact numbers.

Twelve molecules from patent publication US11306095B2 (EAST CHINA UNIVERSITY OF SCIENCE AND TECHNOLOGY, priority 2015, dated 2022) can be followed below.

By melting point is commonly meant the temperature of the solid-liquid transition.

T2 sequence (P00533 25-1210 T790M/L858R): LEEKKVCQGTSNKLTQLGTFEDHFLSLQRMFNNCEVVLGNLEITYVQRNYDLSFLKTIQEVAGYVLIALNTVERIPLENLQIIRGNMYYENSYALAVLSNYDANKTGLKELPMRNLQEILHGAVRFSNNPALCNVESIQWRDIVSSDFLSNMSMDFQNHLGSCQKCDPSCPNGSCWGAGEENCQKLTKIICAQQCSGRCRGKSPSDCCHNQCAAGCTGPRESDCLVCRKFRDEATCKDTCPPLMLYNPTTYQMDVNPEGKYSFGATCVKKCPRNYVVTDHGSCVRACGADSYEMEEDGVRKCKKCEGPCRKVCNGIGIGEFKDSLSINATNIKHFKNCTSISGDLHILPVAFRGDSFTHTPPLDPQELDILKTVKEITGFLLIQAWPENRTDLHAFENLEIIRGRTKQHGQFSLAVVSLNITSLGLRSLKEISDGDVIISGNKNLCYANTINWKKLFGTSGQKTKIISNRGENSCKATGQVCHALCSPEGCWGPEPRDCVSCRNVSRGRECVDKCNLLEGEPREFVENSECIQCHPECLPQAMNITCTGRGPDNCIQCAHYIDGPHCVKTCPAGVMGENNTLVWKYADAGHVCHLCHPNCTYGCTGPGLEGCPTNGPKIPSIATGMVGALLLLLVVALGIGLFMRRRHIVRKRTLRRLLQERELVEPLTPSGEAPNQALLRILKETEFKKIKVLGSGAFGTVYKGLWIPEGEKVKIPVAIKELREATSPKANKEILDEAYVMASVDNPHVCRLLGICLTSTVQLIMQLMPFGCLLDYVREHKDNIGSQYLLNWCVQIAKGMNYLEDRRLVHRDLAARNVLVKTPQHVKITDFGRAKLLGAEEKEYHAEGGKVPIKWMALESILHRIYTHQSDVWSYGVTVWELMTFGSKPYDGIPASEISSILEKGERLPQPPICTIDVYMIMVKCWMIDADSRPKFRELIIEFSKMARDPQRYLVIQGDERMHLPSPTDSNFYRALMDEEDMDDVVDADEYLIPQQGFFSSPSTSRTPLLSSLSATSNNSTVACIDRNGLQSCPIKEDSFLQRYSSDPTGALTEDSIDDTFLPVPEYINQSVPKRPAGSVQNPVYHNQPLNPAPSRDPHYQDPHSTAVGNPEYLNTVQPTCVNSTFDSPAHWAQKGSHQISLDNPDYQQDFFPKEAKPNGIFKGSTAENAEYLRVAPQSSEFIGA

`C=CC(=O)Nc1cccc(-n2c(=O)cnc3cnc(Nc4ccc(N5CCN(C)CC5)cc4OCOC)nc32)c1` [Compound 9, N-(3-(2-((2-(methoxymethoxy)-4-(4-methyl-1-piperazinyl)phenyl)amino)-7-oxo-8(7H)-pteridinyl)phenyl)acrylamide]: the melting point lay within 187.3 to 188.1 °C. The IC50 in data set [1] turned out to be 1.04 µM. Further, the solubility in data set [2] was determined as 163 µg/mL (≈ 300 µM). In data set [3], the IC50 was found to be 2.81 µM. Moreover, the IC50 at Wild type EGFR was 23.4 nM. Further, the IC50 at EGFR-L858R/T790M came out at 20.8 nM.
Take `Cc1cc(Nc2ncc3nc(-c4ccccc4)c(=O)n([C@H]4CCN(C(=O)/C=C/CN(C)C)C4)c3n2)ccc1N1CCN(C)CC1` [Compound 29, (S,E)-8-(1-(4-(dimethylamino)-2-butenoyl)-3-pyrrolidinyl)-2-((3-methyl-4-(4-methyl-1-piperazinyl)phenyl)amino)-6-phenyl-7(8H)-pteridinone]: the IC50 is 3.09 µM in data set [1], 1.6 µM in data set [3], 177 nM at Wild type EGFR and 791 nM at EGFR-L858R/T790M. In data set [2], the solubility was found to be 438 µg/mL (≈ 720 µM).
Turning to `COc1cc(N2CCN(C)CC2)ccc1Nc1ncc2ncc(=O)n(C3CCN(C(=O)/C=C/CN(C)C)CC3)c2n1` [Compound 30, (E)-8-(1-(4-(dimethylamino)-2-butenoyl)-4-piperidinyl)-2-((2-methoxy-4-(4-methyl-1-piperazinyl)phenyl)amino)-7(8H)pteridinone], the melting point fell in the range of 157.3 to 157.6 °C. Further, the IC50 in data set [1] was 8.69 µM. Moreover, the solubility in data set [2] was over 10 µg/mL. In addition, the IC50 in data set [3] was over 10 µM. In addition, the IC50 at Wild type EGFR is over 1000 nM. For the same molecule, the IC50 on EGFR-L858R/T790M is over 1000 nM.
`COc1cc(N2CCN(C)CC2)ccc1Nc1ncc2nc(-c3ccccc3)c(=O)n([C@H]3CCN(C(=O)/C=C/CN(C)C)C3)c2n1` [Compound 31] displayed a melting point of 253.1 to 254 °C. In addition, the IC50 in data set [1] was found to be 2.16 µM. For the same molecule, in data set [2], the solubility was 63.3 µg/mL (≈ 101 µM). Besides, the IC50 in data set [3] was over 10 µM. The IC50 at Wild type EGFR was determined as 522 nM. The IC50 at EGFR-L858R/T790M was found to be 9 nM.
In turn, `C=CC(=O)Nc1cccc(-n2c(=O)c(C(C)C)nc3cnc(Nc4ccc(N5CCN(C)CC5)c(OC)c4)nc32)c1` [Compound 32, N-(3-(6-isopropyl-2-((3-methoxy-4-(4-methyl-1-piperazinyl)phenyl)amino)-7-oxo-8(7H)pteridinyl)phenyl)acrylamide] returned a melting point of 249 to 249.5 °C. The IC50 in data set [1] was 0.033 µM. For the same molecule, the solubility in data set [2] is under 10 µg/mL. The IC50 in data set [3] worked out at 2.75 µM. In addition, at Wild type EGFR, the IC50 is 1.3 nM. On EGFR-L858R/T790M, the IC50 worked out at 7.1 nM.
Turning to `C=CC(=O)Nc1cccc(-n2c(=O)c(C(F)(F)F)nc3cnc(Nc4ccc(N5CCN(C)CC5)c(OC)c4)nc32)c1` [Compound 33, N-(3-(2-((3-methoxy-4-(4-methyl-1-piperazinyl)phenyl)amino)-7-oxo-6-(trifluoromethyl)-8(7H)-pteridinyl)phenyl)acrylamide], the melting point was over 300 °C. The IC50 in data set [1] came to 0.23 µM. Moreover, the solubility in data set [2] worked out at 24.5 µg/mL (≈ 42.2 µM). In addition, the IC50 in data set [3] was found to be 3.68 µM. For the same molecule, the IC50 at Wild type EGFR came to 33 nM. In addition, the IC50 at EGFR-L858R/T790M worked out at 1.3 nM.
`C=CC(=O)N1CC[C@H](n2c(=O)cnc3cnc(Nc4ccc(N5CCN(C)CC5)c(C)c4)nc32)C1` [Compound 34, (S)-8-(1-acryloyl-3-pyrrolidinyl)-2-((3-methyl-4-(4-methyl-1-piperazinyl)phenyl)amino)-7(8H)pteridinone]: the melting point lay in the range of 215.5 to 215.7 °C. Besides, the IC50 in data set [1] worked out at 0.831 µM. Besides, the solubility in data set [2] was determined as 223 µg/mL (≈ 470 µM). The IC50 in data set [3] is over 10 µM. The IC50 on Wild type EGFR was 86.7 nM. In addition, the IC50 at EGFR-L858R/T790M amounted to 896 nM.
`C=CC(=O)N1CC[C@H](n2c(=O)c(-c3ccccc3)nc3cnc(Nc4ccc(N5CCN(C)CC5)c(OC)c4)nc32)C1` [Compound 35, (S)-8-(1-acryloyl-30pyrrolidinyl)-2-((3-methoxy-4(4-methyl-1-piperazinyl)phenyl)amino)-6-phenyl-7(8H)pteridinone] returned a melting point of 208.3 to 208.8 °C. Besides, in data set [1], the IC50 turned out to be 0.378 µM. In addition, in data set [2], the solubility was 63.3 µg/mL (≈ 112 µM). For the same molecule, the IC50 in data set [3] was 0.225 µM. The IC50 on Wild type EGFR was 20.1 nM. Further, the IC50 at EGFR-L858R/T790M is 17.5 nM.
As for `Cc1cc(Nc2ncc3nc(C(C)C)c(=O)n([C@H]4CCN(C(=O)/C=C/CN(C)C)C4)c3n2)ccc1N1CCN(C)CC1` [Compound 36, (S,E)-8-(1-(4-(dimethylamino)-2-butenoyl)3-pyrrolidinyl)-2-((3-methyl-4-(4-methyl-1-piperazinyl)phenyl)amino)-6-isopropyl-7(8H)pteridinone], the melting point lay within 159.9 to 160.7 °C. In addition, the IC50 in data set [1] came out at 2.2 µM. Besides, the solubility in data set [2] amounted to 737 µg/mL (≈ 1280 µM). Besides, the IC50 in data set [3] came out at 9.6 µM. For the same molecule, the IC50 on Wild type EGFR is over 1000 nM. Besides, the IC50 on EGFR-L858R/T790M is over 1000 nM.
For `C=CC(=O)Nc1cccc(-n2c(=O)c(C(C)C)nc3cnc(Nc4ccc(N5CCN(C)CC5)cc4OC)nc32)c1` [Compound 37, N-(3-(6-isopropyl-2-((2-methoxy-4-(4-methyl-1-piperazinyl)phenyl)amino)-7-oxo-8(7H)pteridinyl)phenyl)acrylamide], the IC50 worked out at 0.074 µM in data set [1], 3.23 µM in data set [3], 26 nM at Wild type EGFR and 4.9 nM on EGFR-L858R/T790M. The solubility in data set [2] was under 10 µg/mL.
Take `C=CC(=O)Nc1cccc(-n2c(=O)c(C3CCCCC3)nc3cnc(Nc4ccc(N5CCN(C)CC5)cc4OC)nc32)c1` [Compound 43, N-(3-(6-cyclohexyl-2-((2-methoxy-4-(4-methyl-1-piperazinyl)phenyl)amino)-7-oxo-8(7H)pteridinyl)phenyl)acrylamide]: the IC50 came to 0.112 µM in data set [1], 0.433 µM in data set [3], 7.7 nM at Wild type EGFR and 0.6 nM on EGFR-L858R/T790M. In addition, in data set [2], the solubility is under 10 µg/mL.
Consider `C=CC(=O)N1CCC(n2c(=O)c(-c3ccccc3)nc3cnc(Nc4ccc(N5CCN(C)CC5)c(C)c4)nc32)C1` (centres unmarked) [Compound 49, 8-(1-acryloyl-3-pyrrolidinyl)-2-((3-methyl-4-(4-methyl-1-piperazinyl)phenyl)amino)-6-phenyl-7(8H)pteridinone], for which the IC50 in data set [1] turned out to be 0.368 µM; in data set [3], 0.287 µM; at Wild type EGFR, 19.2 nM; at EGFR-L858R/T790M, 14.2 nM. In data set [2], the solubility was under 10 µg/mL.
